Legend:
hSTING-CTD = hSTING-CTD (Homo sapiens (Human), UniProt Q86WV6); experiment: Human STING protein FP competition concentration response assay; assay type: binding
Protocol: (§1) A validated STING ligand, such as c-di-GMP, which is labeled with a read-out signal (e.g., a fluorescence signal such as fluorescein), is mixed with STING-CTD (e.g., mouse STING-CTD or human STING-CTD) with or without the presence of a compound of the present application. Changes in the read-out signal are measured (e.g., by fluorescence anisotropy) to determine the binding of the compound to STING-CTD.
(§2) Fluorescein labeled c-di-GMP, a validated STING ligand, was mixed with recombinant hSTING-CTD in a homogenous assay format with or without the presence of a compound of the present application (titrated) in PBS in black 384-well plates (10 μL per well). The fluorescence anisotropy was determined on a PerkinElmer EnVisions multi-mode plate reader. The plate can be read immediately after mixing the reagents or after a few hours without change of signals.
• 1) hSTING (Supplier: HDB) • 2) 2′-Fluo-AHC-c-di GMP (BIOLOG #F009) • 3) 2′3′-cGAMP (BIOLOG #C161) • 4) DMXAA (InvivoGen #tlrl-dmx) • 5) DMSO (Sigma, #D5879-100 mL) • 6) 10×PBS(HDB #MCP-020) • 7) Assay plate, 384-well black plate, solid black bottom (Greiner #784076) • 8) Compound dilution intermediate plate, 384 LDV plate (Labcyte #LP-0200) • 9) Liquid handler, ECHO550 (Labcyte) • 10) Liquid handler, Bravo (Aglient) • 11) Reader, Envision (PerkinElmer) • 12) Centrifuge (Eppendorf) • 13) Multichannel Pipette (Raining) • 14) 10 ml Reservoir (Corning) • 15) 15 ml centrifuge tube (Corning) • 16) Adhesive Plate seals (BioRad) Compound Preparation • a) Containers of each compound were centrifuged at 1000 rpm for 5 min. • b) Compounds were dissolved in DMSO at 30 mM. • c) Compounds were sufficiently vortexed, and centrifuged at 1000 rpm for 1 min. • d) 16 uL of the compound solution was transferred into a LDV Compound Plate. • e) 2-fold serial dilutions of the compound solution were made with DMSO, and 14 concentrations were made in the 384-well LDV Compound Plate. • f) The LDV plate was spun at 1000 rpm for 60 sec and sealed with foil (stored at −20° C. if not used immediately). • g) 335 nL of each compound from the LDV Compound Plate was transferred to Assay Plate (ECHO550). Probe Preparation • a) 200 uM probe stock (2′-Fluo-AHC-c-diGMP) was diluted by ddH2O to 6 uM working concentration. • b) 10-12 uL 6 uM working solution of probe was transferred into the LDV plate. • c) 50 nL per well 6 uM working solution of probe was transferred from the LDV plate to each well of the empty Assay Plate (Greiner 784076) by ECHO550 Buffer mode. • d) Probe final concentration was 30 nM when assay system was 10 uL. • e) The Assay Plate was spun at 1000 rpm for 1 min. Compound Addition • a) After the LDV Compound Plate was prepared, 335 nL compound (ECHO550 DMSO mode) was transferred from the LDV Compound Plate into the Assay Plate (Greiner 784076) containing 50 nL probe in each well according to the Assay Plate layout. • b) DMSO final concentration was 3.35% when assay system was 10 uL. • c) The Assay Plate was spun at 1000 rpm for 1 min. Protein Addition • a) Aliquot of hSTING protein was thawed on ice, briefly to generate uniform solution. • b) 55 uM stock protein was diluted in 1×PBS assay buffer to generate 10 uM final solutions. • c) For test compound and ZPE wells, 10 μL per well of 10 uM protein solutions was added into the Assay Plate containing both the probe and test compounds or DMSO using multichannel pipette. • d) For HPE wells, 10 μL/well of 1×PBS assay buffer instead of protein was added into the Assay Plate containing both the probe and DMSO using multichannel pipette. • e) The Assay Plate was spun at 1000 rpm for Imin. • f) The Assay Plate was incubated at r.t. for 10-20 min.
(§3) The EnVision plate reader was used to record the FA value of each well immediately after mixing the reagents or after a few hours without change of signals.
(§4) The raw data and calculated data (Fluorescence anisotropy (FA)) was exported from the EnVision reader. […]

mSTING-CTD = mSTING-CTD (Mus musculus (Mouse), UniProt Q3TBT3); experiment: Mouse STING protein FP competition concentration response assay; assay type: binding
Protocol: as §1
as §2, with “c-di-GMP” for “c-di-GMP, a validated STING ligand,”, “mSTING-CTD” for “recombinant hSTING-CTD in a homogenous assay format”, “application” for “application (titrated)”
• 1) 6×his-sumo-mSTING (Supplier: HDB) • 2) 2′-Fluo-AHC-c-di GMP (BIOLOG #F009) • 3) 23-cGAMP (BIOLOG #C161) • 4) DMXAA (InvivoGen #tlrl-dmx) • 5) DMSO (Sigma. #D5879-100 mL) • 6) 10×PBS(HDB #MCP-020) • 7) Assay plate, 384-well black plate, solid black bottom (Greiner #784076) • 8) Compound dilution intermediate plate, 384 LDV plate (Labcyte #LP-0200) • 9) Liquid handler, ECHO550 (Labcyte) • 10) Liquid handler, Bravo (Aglient) • 11) Reader, Envision (PerkinElmer) • 12) Centrifuge (Eppendorf) • 13) Multichannel Pipette (Raining) • 14) 10 ml Reservoir (Corning) • 15) 15 ml centrifuge tube (Corning) • 16) Adhesive Plate seals (BioRad) Compound Preparation • a) Containers of each compound were centrifuged at 1000 rpm for 5 min. • b) Compounds were dissolved in DMSO at 30 mM. • c) Compounds were sufficiently vortexed, and centrifuged at 1000 rpm for 1 min. • d) 16 uL of the compound solution was transferred into a LDV Compound Plate. • e) 2-fold serial dilutions of the compound solution were made with DMSO, and 14 concentrations were made in the 384-well LDV Compound Plate. • f) The LDV plate was spun at 1000 rpm for 60 sec and sealed with foil (stored at −20° C. if not used immediately). • g) 335 nL of each compound from the LDV Compound Plate was transferred to Assay Plate (ECHO550). Probe Preparation • a) 200 uM probe stock (2′-Fluo-AHC-c-diGMP) was diluted by dd2O to 6 uM working concentration. • b) 10-12 uL 6 uM working solution of probe was transferred into the LDV plate. • c) 50 nL per well 6 uM working solution of probe was transferred from the LDV plate to each well of the empty Assay Plate (Greiner 784076) by ECHO550 Buffer mode. • d) Probe final concentration was 30 nM when assay system was 10 uL. • e) The Assay Plate was spun at 1000 rpm for 1 min. Compound Addition • a) After the LDV Compound Plate was prepared, 100 nL compound (ECHO550 DMSO mode) was transferred from the LDV Compound Plate into the Assay Plate (Greiner 784076) containing 50 nL probe in each well according to the Assay Plate layout. • b) DMSO final concentration was 1% when assay system was 10 uL. • c) The Assay Plate was spun at 1000 rpm for 1 min. Protein Addition • a) Aliquot of 6×his-sumo-mSTING protein was thawed on ice, briefly to generate uniform solution. • b) 66 uM stock protein was diluted in 1×PBS assay buffer to generate 8 uM final solutions. • c) For test compound and ZPE wells, 10 μL per well of 8 uM protein solutions was added into the Assay Plate containing both the probe and test compounds or DMSO using multichannel pipette. • d) For HPE wells, 10 µL/well of 1×PBS assay buffer instead of protein was added into the Assay Plate containing both the probe and DMSO using multichannel pipette. • e) The Assay Plate was spun at 1000 rpm for 1 min. • f) The Assay Plate was incubated at r.t. for 10-20 min.
as §3, §4

Sequence of mSTING-CTD (Q3TBT3 134-378): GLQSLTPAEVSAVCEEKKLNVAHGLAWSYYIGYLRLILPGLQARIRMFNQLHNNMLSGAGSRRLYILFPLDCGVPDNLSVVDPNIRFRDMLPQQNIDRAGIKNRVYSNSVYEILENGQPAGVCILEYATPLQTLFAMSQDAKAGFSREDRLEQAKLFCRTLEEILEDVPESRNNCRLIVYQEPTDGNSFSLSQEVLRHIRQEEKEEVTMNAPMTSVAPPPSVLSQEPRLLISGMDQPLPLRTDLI
Sequence of hSTING-CTD (Q86WV6 135-379): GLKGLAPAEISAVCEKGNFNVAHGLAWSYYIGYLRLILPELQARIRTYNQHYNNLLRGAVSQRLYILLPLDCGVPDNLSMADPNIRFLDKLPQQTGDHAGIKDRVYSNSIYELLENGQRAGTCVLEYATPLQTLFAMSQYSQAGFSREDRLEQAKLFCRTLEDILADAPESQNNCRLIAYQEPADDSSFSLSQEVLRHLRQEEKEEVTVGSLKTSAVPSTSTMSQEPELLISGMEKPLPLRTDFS

| Structure (SMILES) | IC50 (hSTING-CTD) | IC50 (mSTING-CTD) |
| --- | --- | --- |
| Cc1ccc2c(=O)c3ccccc3n(CC(=O)O)c2c1Cl [Compound 19] | > 1000 µM | 10 to 50 µM |
| Cc1ccc2c(=O)c3cccc(C)c3n(CC(=O)O)c2c1 [Compound 11] | 500 to 1000 µM | < 10 µM |
| CC(C)(C)c1ccc2c(=O)c3ccc(Cl)c(Cl)c3n(CC(=O)O)c2c1 [Compound 47] | < 100 µM | 10 to 50 µM |
| Cc1ccc2c(c1)c(=O)c1ccccc1n2CC(=O)O [Compound 10] | > 1000 µM | 10 to 50 µM |
| CC(C)c1ccc2c(=O)c3ccc(Cl)c(Cl)c3n(CC(=O)O)c2c1 [Compound 81] | < 100 µM | 10 to 50 µM |
| Cc1ccc2c(=O)c3cccc(Cl)c3n(CC(=O)O)c2c1 [Compound 12] | 500 to 1000 µM | < 10 µM |
| O=C(O)Cn1c2ccccc2c(=O)c2c(Cl)cccc21 [Compound 2] | – | 50 to 100 µM |
| O=C(O)Cn1c2ccccc2c(=O)c2ccc(C#Cc3ccccc3)cc21 [Compound 25] | – | 10 to 50 µM |
| CCc1ccc2c(=O)c3ccc(Cl)c(Cl)c3n(CC(=O)O)c2c1 [Compound 82] | 100 to 500 µM | 50 to 100 µM |
| Cc1ccc2c(=O)c3c(Cl)cccc3n(CC(=O)O)c2c1 [Compound 16] | – | 10 to 50 µM |
| Cc1ccc2c(=O)c3cc(CCc4ccccc4C)ccc3n(CC(=O)O)c2c1 [Compound 75] | 100 to 500 µM | > 100 µM |
| Cc1cc2c(=O)c3ccc(Cl)c(Cl)c3n(CC(=O)O)c2cc1C [Compound 94] | 100 to 500 µM | 50 to 100 µM |
| Cc1c(Cl)ccc2c(=O)c3ccccc3n(CC(=O)O)c12 [Compound 98] | 500 to 1000 µM | 10 to 50 µM |
| O=C(O)Cn1c2ccccc2c(=O)c2cc(CCc3ccccc3)ccc21 [Compound 23] | 100 to 500 µM | 10 to 50 µM |
| Cc1ccc2c(=O)c3c(F)cccc3n(CC(=O)O)c2c1 [Compound 36] | – | 10 to 50 µM |
| Cc1ccc2c(=O)c3c(C)cccc3n(CC(=O)O)c2c1 [Compound 14] | – | 10 to 50 µM |
| Cc1cccc2c1c(=O)c1ccccc1n2CC(=O)O [Compound 3] | – | 10 to 50 µM |
| COc1cccc2c1c(=O)c1ccc(C)cc1n2CC(=O)O [Compound 32] | – | > 100 µM |
| O=C(O)Cn1c2ccccc2c(=O)c2ccc(Br)cc21 [Compound 18] | – | 10 to 50 µM |
| COc1ccc2c(=O)c3c(C)cccc3n(CC(=O)O)c2c1 [Compound 35] | – | 10 to 50 µM |
